Experimental data reported in patent publication US7635696B2, “Isoxazoline-indole derivatives with an improved antipsychotic and anxiolytic activity” (Janssen Pharmaceutica N.V., priority 2004, dated 2009).
Where two headings read alike, the source gives them in different places.

What was measured:
[1] = target: T1, Human Dopamine D2L receptor (Homo sapiens, UniProt P14416); experiment: Binding experiment for dopamine D2 receptor ([3H]Spiperone); conditions: D2L-transfected CHO cell membranes; for IC50: read-out: pIC50 D2 (converted)
T1 construct: expressed in transfected cells; host or cells: CHO cells
Method: (§1) The interaction of the compounds of Formula (I) with dopamine-receptors, h5HT-transporter and h5HT1A receptor was assessed in in vitro radioligand binding experiments. In general, a low concentration of a radioligand with a high binding affinity for a particular receptor or transporter is incubated with a sample of a tissue preparation enriched in a particular receptor or transporter or with a preparation of cells expressing cloned human receptors in a buffered medium. During the incubation, the radioligand binds to the receptor or transporter. When equilibrium of binding is reached, the receptor bound radioactivity is separated from the non-bound radioactivity, and the receptor- or transporter-bound activity is counted. The interaction of the test compounds with the receptor is assessed in competition binding experiments. Various concentrations of the test compound are added to the incubation mixture containing the receptor- or transporter preparation and the radioligand. The test compound in proportion to its binding affinity and its concentration inhibits binding of the radioligand.
Human Dopamine D2L receptor-transfected CHO cells were collected by scraping into ice-cold Tris-HCl buffer (50 mM, pH 7.4). The suspension was centrifuged (23 500×g, 10 min, 4° C.) and pellets stored at −70° C. until required. They were then thawed and briefly homogenised using an Ultra-Turrax T25 homogeniser prior to dilution to an appropriate protein concentration optimised for specific and non-specific binding. [^3H]Spiperone (NEN, specific activity ˜70 Ci/mmol) was diluted in Tris-HCl assay buffer containing NaCl, CaCl2, MgCl2, KCl (50, 120, 2, 1, and 5 mM respectively, adjusted to pH 7.7 with HCl) at a concentration of 2 nmol/L. Prepared radioligand (50 μl) was then incubated (30 min, 37° C.) with membrane preparations pre-diluted to an appropriate protein concentration (400 μl), and with 50 μl of either the 10% DMSO control, Butaclamol (10^−6 mol/L final concentration), or compound of interest. Membrane-bound activity was detected by filtration through a Packard Filtermate harvester onto Unifilterplates, washing with ice-cold Tris-HCl buffer (50 mM; pH8.0; 3×4 ml). Filters were allowed to dry before adding scintillation fluid and counting in a Topcount scintillation counter. % Specific bound and competition binding curves were calculated using S-Plus software (Insightful).

human 5HT transporter = target: T2, human 5HT transporter (Homo sapiens, UniProt P31645); experiment: Binding experiment for 5-HT transporter ([3H]Paroxetine)
T2 construct: host or cells: HEK cells
Method: as §1
Frozen human 5HT transporter-transfected HEK cells (Perkin Elmer, Brussels) were thawed and briefly homogenised using an Ultra-Turrax T25 homogeniser prior to dilution to an appropriate protein concentration optimised for specific and non-specific binding. [^3H]Paroxetine (NEN, specific activity 20 Ci/mmol) was diluted in Tris-HCl assay buffer containing NaCl and KCl (50 mM, 120 mM and 5 mM, respectively; pH 7.4) at a concentration of 5 nmol/L. Prepared radioligand (25 μl) was then incubated (60 min, 25° C.) with membrane preparations (200 μl) and with 25 μl of either 10% DMSO control, Inipramine (10^−6 mol/L final concentration), or compound of interest. Membrane-bound activity was detected by filtration through a Packard Filtermate harvester onto Unifilterplates pre-soaked in 0.1% PEI, washing with ice-cold assay buffer (3×4 ml). Filters were dried prior to addition of scintillation fluid and then counting in a Topcount scintillation counter. % Specific bound and competition binding curves were calculated using S-Plus software (Insightful).

Human 5HT1A receptor = target: T3, Human 5HT1A receptor (Homo sapiens, UniProt P08908); experiment: Binding experiment for 5-HT1A receptor ([3H]8OHDPAT)
T3 construct: expressed in transfected cells; host or cells: L929 cells (stably transfected)
T3 sequence (P08908 1-422): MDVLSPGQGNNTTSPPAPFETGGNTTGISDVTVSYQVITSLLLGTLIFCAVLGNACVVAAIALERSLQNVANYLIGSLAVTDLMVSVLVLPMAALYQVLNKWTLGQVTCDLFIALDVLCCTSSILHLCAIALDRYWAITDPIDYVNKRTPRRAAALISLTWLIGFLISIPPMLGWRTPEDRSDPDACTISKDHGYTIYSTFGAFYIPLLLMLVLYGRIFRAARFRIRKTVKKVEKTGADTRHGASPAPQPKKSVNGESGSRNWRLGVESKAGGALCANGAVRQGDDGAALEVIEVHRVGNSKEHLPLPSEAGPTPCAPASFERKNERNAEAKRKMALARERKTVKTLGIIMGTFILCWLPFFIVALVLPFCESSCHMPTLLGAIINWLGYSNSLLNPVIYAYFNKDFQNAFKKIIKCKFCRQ
Method: as §1
Human 5HT1A receptor-transfected L929 cells were collected by scraping into ice-cold Tris-HCl buffer (50 mM, pH 7.4). The suspension was centrifuged (23 500×g, 10 min, 4° C.) and pellets stored at −70° C. until required. They were then thawed and briefly homogenised using an Ultra-Turrax T25 homogeniser prior to dilution to an appropriate protein concentration optimised for specific and non-specific binding. [^3H]80HDPAT (NEN, specific activity 127 Ci/mmol) was diluted in Tris-HCl assay buffer containing CaCl2 (50 mM and 4 mM, respectively; pH 7.7) at a concentration of 5 nmol/L. Prepared radioligand (50 μl) was then incubated (30 min, 37° C.) with membrane preparations from L929 cells stably-transfected with the h5HT1A gene construct (400 μl) and with 50 μl of either the 10% DMSO control, spiroxatrine (10^−6 mol/L final concentration), or compound of interest. Membrane-bound activity was detected by filtration through a Packard Filtermate harvester onto Unifilterplates, washing with ice-cold Tris-HCl buffer (3×4 ml), followed by drying. Scintillation fluid was added and membranes were counted in a Topcount scintillation counter. % Specific bound and competition binding curves were calculated using S-Plus software (Insightful).

[2] = transfected HEK cell membranes, [3H]Paroxetine, read-out: pIC50 5HTT (converted)
[3] = transfected L929 cell membranes, [3H]8OHDPAT, read-out: pIC50 5-HT1A (converted)
[4] = transfected HEK cell membranes, [3H]Paroxetine
[5] = transfected L929 cell membranes, [3H]8OHDPAT

T1 sequence (P14416 whole entry): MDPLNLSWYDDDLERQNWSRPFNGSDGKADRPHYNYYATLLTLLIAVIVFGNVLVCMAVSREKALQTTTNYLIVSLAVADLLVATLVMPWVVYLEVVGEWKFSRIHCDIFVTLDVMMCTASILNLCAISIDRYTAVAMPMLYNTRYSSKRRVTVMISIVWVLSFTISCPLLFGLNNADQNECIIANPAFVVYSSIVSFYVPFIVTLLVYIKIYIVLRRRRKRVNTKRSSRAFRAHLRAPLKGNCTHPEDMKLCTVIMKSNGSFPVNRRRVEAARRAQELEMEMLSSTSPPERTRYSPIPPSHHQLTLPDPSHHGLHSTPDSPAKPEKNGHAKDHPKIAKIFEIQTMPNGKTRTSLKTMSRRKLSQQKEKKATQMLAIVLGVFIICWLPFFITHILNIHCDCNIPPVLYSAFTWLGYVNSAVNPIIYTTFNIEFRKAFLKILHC
T2 sequence (P31645 whole entry): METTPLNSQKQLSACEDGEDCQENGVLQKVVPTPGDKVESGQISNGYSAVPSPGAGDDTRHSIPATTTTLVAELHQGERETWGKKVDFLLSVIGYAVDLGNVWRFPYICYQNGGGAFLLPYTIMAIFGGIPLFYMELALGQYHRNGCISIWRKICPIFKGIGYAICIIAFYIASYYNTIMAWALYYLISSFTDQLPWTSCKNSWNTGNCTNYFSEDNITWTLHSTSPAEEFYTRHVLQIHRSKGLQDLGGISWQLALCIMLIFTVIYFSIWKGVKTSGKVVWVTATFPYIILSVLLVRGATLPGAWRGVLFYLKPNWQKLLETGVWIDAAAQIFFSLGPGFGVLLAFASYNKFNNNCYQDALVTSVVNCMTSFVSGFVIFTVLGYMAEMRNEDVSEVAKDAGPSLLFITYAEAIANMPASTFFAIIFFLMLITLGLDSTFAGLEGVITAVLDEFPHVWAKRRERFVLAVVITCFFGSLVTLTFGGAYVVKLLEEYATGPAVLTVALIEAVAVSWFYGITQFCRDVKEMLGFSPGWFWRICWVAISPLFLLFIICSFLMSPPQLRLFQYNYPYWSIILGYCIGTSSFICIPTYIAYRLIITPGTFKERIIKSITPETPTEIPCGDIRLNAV

## COc1ccc2[nH]cc(C3CCN(CC4ON=C5c6cc(OC)c(OC)cc6OCC54)CC3)c2c1 (racemic) [Compound 8]
[1]
  IC50: > 1000 nM
Human 5HT transporter; [2]
  IC50: 1260 nM
Human 5HT1A receptor; [3]
  IC50: 7.94 nM

## CCNC(=O)Nc1ccc2[nH]cc(C3=CCN(CC4ON=C5c6cc(OC)c(OC)cc6OCC54)CC3)c2c1 (racemic) [Compound 37]
[1]
  IC50: > 10000 nM
Human 5HT transporter; [2]
  IC50: > 10000 nM
Human 5HT1A receptor; [3]
  IC50: 7.94 nM

## COc1cc2c(cc1OC)C1=NOC(CN3CC=C(c4c[nH]c5ccc(NC(=O)Nc6ccccc6)cc45)CC3)C1CO2 (racemic) [Compound 38]
[1]
  pIC50 D2: <5
Human 5HT transporter; [4]
  pIC50 5HTT: <5
Human 5HT1A receptor; [5]
  pIC50 5-HT1A: 8.4

## CCOC(=O)CNC(=O)Nc1ccc2[nH]cc(C3=CCN(CC4ON=C5c6cc(OC)c(OC)cc6OCC54)CC3)c2c1 (racemic) [Compound 39]
[1]
  pIC50 D2: <5
Human 5HT transporter; [4]
  pIC50 5HTT: <5
Human 5HT1A receptor; [5]
  pIC50 5-HT1A: 7.8

## COc1cc2c(cc1OC)C1=NOC(CN3CC=C(c4c[nH]c5ccc(NC(C)=O)cc45)CC3)C1CO2 (racemic) [Compound 40]
[1]
  IC50: > 10000 nM
Human 5HT transporter; [2]
  IC50: > 10000 nM
Human 5HT1A receptor; [3]
  IC50: 3.16 nM

## COCC(=O)Nc1ccc2[nH]cc(C3=CCN(CC4ON=C5c6cc(OC)c(OC)cc6OCC54)CC3)c2c1 (racemic) [Compound 41]
[1]
  pIC50 D2: <5
Human 5HT transporter; [4]
  pIC50 5HTT: <5
Human 5HT1A receptor; [5]
  pIC50 5-HT1A: 8.3

## CCOC(=O)C(=O)Nc1ccc2[nH]cc(C3=CCN(CC4ON=C5c6cc(OC)c(OC)cc6OCC54)CC3)c2c1 (racemic) [Compound 42]
[1]
  pIC50 D2: <5
Human 5HT transporter; [4]
  pIC50 5HTT: <5.5
Human 5HT1A receptor; [5]
  pIC50 5-HT1A: 8.2

## COc1cc2c(cc1OC)C1=NOC(CN3CC=C(c4c[nH]c5ccc(NS(C)(=O)=O)cc45)CC3)C1CO2.O=C(O)C(F)(F)F (racemic) [Compound 43]
[1]
  pIC50 D2: 6.0
Human 5HT transporter; [4]
  pIC50 5HTT: <5
Human 5HT1A receptor; [5]
  pIC50 5-HT1A: 8.7

## COc1cc2c(cc1OCCO)OCC1C2=NOC1CN1CCC(c2c[nH]c3ccc(F)cc23)CC1 (racemic) [Compound 47]
[1]
  IC50: 100 nM
Human 5HT transporter; [2]
  IC50: 398 nM

## COc1cc2c(cc1OCCOC(C)=O)OCC1C2=NOC1CN1CCC(c2c[nH]c3ccc(F)cc23)CC1 (racemic) [Compound 48]
[1]
  IC50: 158 nM
Human 5HT transporter; [2]
  IC50: 79.4 nM
Human 5HT1A receptor; [3]
  IC50: 1.58 nM

## COCC(=O)OCCOc1cc2c(cc1OC)C1=NOC(CN3CCC(c4c[nH]c5ccc(F)cc45)CC3)C1CO2 (racemic) [Compound 49]
[1]
  pIC50 D2: 6.7
Human 5HT transporter; [4]
  pIC50 5HTT: 6.9

## CCNC(=O)OCCOc1cc2c(cc1OC)C1=NOC(CN3CCC(c4c[nH]c5ccc(F)cc45)CC3)C1CO2 (racemic) [Compound 50]
[1]
  pIC50 D2: 6.8
Human 5HT transporter; [4]
  pIC50 5HTT: 6.9
Human 5HT1A receptor; [5]
  pIC50 5-HT1A: 8.6

## Fc1ccc2c(C3CCN(CC4ON=C5c6ccc(NCCN7CCCC7)cc6OCC54)CC3)c[nH]c2c1 (racemic) [Compound 51]
[1]
  pIC50 D2: 7.9
Human 5HT transporter; [4]
  pIC50 5HTT: 8.2
Human 5HT1A receptor; [5]
  pIC50 5-HT1A: 7.7

## Fc1ccc2c(C3CCN(CC4ON=C5c6ccc(N7CCOCC7)cc6OCC54)CC3)c[nH]c2c1 (racemic) [Compound 52]
[1]
  pIC50 D2: 7.5
Human 5HT transporter; [4]
  pIC50 5HTT: 7.4
Human 5HT1A receptor; [5]
  pIC50 5-HT1A: 7.5

## COc1cc2c(cc1OC)C1=NOC(CN3CCC(c4c[nH]c5ccc(Br)cc45)CC3)C1CO2 (racemic) [Compound 53]
[1]
  pIC50 D2: 6.7
Human 5HT transporter; [4]
  pIC50 5HTT: 6.4

## COc1cc2c(cc1OC)C1=NOC(CN3CCC(c4c[nH]c5ccc(O)cc45)CC3)C1CO2 (racemic) [Compound 54]
[1]
  IC50: 398 nM
Human 5HT transporter; [2]
  IC50: 63.1 nM

## Fc1ccc2[nH]cc(C3=CCN(CC4ON=C5c6ccc(N7CCOCC7)cc6OCC54)CC3)c2c1 (racemic) [Compound 55]
[1]
  pIC50 D2: 6.3
Human 5HT transporter; [4]
  pIC50 5HTT: 7.5
Human 5HT1A receptor; [5]
  pIC50 5-HT1A: 7.8

## Fc1ccc2[nH]cc(C3=CCN(CC4ON=C5c6ccc(NCCN7CCCC7)cc6OCC54)CC3)c2c1 (racemic) [Compound 56]
[1]
  pIC50 D2: 6.8
Human 5HT transporter; [4]
  pIC50 5HTT: 8.1
Human 5HT1A receptor; [5]
  pIC50 5-HT1A: 8.1

## COc1cc2c(cc1OC)C1=NOC(CN3CCC(Cc4c[nH]c5ccc(F)cc45)CC3)C1CO2 (racemic) [Compound 57]
[1]
  pIC50 D2: 6.3
Human 5HT transporter; [4]
  pIC50 5HTT: 8.3
Human 5HT1A receptor; [5]
  pIC50 5-HT1A: 6.4

## COc1cc2c(cc1OC)C1=NO[C@@H](CN3CCC(n4ccc5ccccc54)CC3)[C@@H]1CO2 (racemic) [Compound 58]
[1]
  IC50: 501 nM
Human 5HT transporter; [2]
  IC50: 631 nM
Human 5HT1A receptor
  IC50: 25.1 nM

## Nc1ccc2c(c1)OCC1C2=NOC1CN1CC=C(c2c[nH]c3ccc(F)cc23)CC1 (racemic) [Compound 61]
Human 5HT transporter; [4]
  pIC50 5HTT: 6.9
Human 5HT1A receptor; [5]
  pIC50 5-HT1A: 7.3

## COCCOCOc1cc2c(cc1OC)C1=NOC(CN3CC=C(c4c[nH]c5ccc(F)cc45)CC3)C1CO2 (racemic) [Compound 63]
[1]
  pIC50 D2: 7.9
Human 5HT transporter; [4]
  pIC50 5HTT: 7.6
Human 5HT1A receptor; [5]
  pIC50 5-HT1A: 6.0

## COc1cc2c(cc1OC)C1=NO[C@@H](CN3CC=C(c4cn(C)c5ccccc45)CC3)[C@@H]1CO2 (single isomer, unassigned) [Compound 34]
[1]
  IC50: 2000 nM
Human 5HT transporter
  IC50: 63.1 nM
Human 5HT1A receptor
  IC50: 20 nM

## CC(=O)Nc1ccc2c(c1)OCC1C2=NOC1CN1CCC(c2c[nH]c3ccc(F)cc23)CC1 (stereo not drawn) [Compound 46]
[1]
  IC50: 316 nM
Human 5HT transporter; [2]
  IC50: 50.1 nM
